Results from US20150343016A1, “CHEMICAL ENTITIES AND THERAPEUTIC USES THEREOF” (The Regents of the University of Colorado, a body corporate, priority 2010, published 2015).
Entries after “also recorded” stand apart in the source; their conditions may differ.

Experiments:
[1] = system: p53 mutant Drosophila larvae; experiment: Drosophila larval survival to adulthood (eclosion), drug with and without IR, p53 mutants; format: in vivo; details: p53 mutants; for eclosion expected if the two treatments produced an additive effect: Bouvardin and IR
Experimental: To validate the identification of Bouvardin from the primary screen, the effect of this molecule on Drosophila larvae alone or in combination with radiation were assessed (FIG. 12). The screen was performed using irradiated mutant larvae. Hits from the screen were defined as those that reduced the survival of IRRADIATED larvae compared to the population of drugs being tested (approximately 80 molecules at a time) or compared to DMSO controls in the re-test. A hit could therefore act by enhancing the effect of radiation, or by simply killing larvae as a single agent, or both. To distinguish among these possibilities, hits from the screen were re-tested against larvae with and without irradiation.
In FIG. 12 survival after each treatment is expressed as the fraction of animals that emerged (“eclosed”) as viable adults. The averages have been normalized to the average fraction eclosed in no IR/drug control for the respective genotype. Error bars extend beyond fractional survival of 1.0 simply because of normalization. (A-C) Fraction eclosed for WT and grp and p53 mutants at 16 uM of Bouvardin, with and without IR. The data are averages of 3-8 biological replicates per sample. Dotted line on each graph denotes expected ‘fraction eclosed’ if drug and IR act additively. IR doses were 4000R for WT and grp and 3000R for p53 because of the higher radiation sensitivity of the latter. (D) Fraction eclosed for Minute mutants and yw controls after exposure to 0 (−IR) and 2000R (+IR) of X-rays. N ranged from 86-207 per genotype per treatment, in 3 biological replicates per sample. *=p<0.01; **=<0.001. 100R=1Gy. Error bar=1 standard deviation.
The activity of Bouvardin in Drosophila alone or in combination with ionizing radiation (IR) was assessed. Drug concentrations of 10-20 μM were used to approximate the conditions of the original screen. Third instar larvae were irradiated and cultured on medium containing drug. The survival of larvae was quantified 10 days later by measuring the rate of eclosion into adulthood. […] For example, IR alone reduces the eclosion of p53 mutants to 0.63±0.05 and 10 μM of drug reduces it to 0.82±0.15. The combination of Bouvardin and IR reduces eclosion to 0.49, nearly the exact number expected (0.63±0.05×0.82±0.15=0.51±0.10) if the two treatments produced an additive effect. The expected eclosion for additive effect of drug and radiation are denoted with a white dotted line in each graph.
Wild type flies were of the Sevelin stock. Mutants have been described before. p535A-1-4 results from targeted deletion of the gene, and is maintained and used as homogygotes. grpl (Chk1 mutants) results from a p-element insertion and is a genetic null. Homozygotes of the latter were identified by the lack of GFP marker on the balancer chromosome. Minute mutants were of the genotypes y[1]w[*]; P[w[+mC]=lacW]RpS131/CyO and P[lacW]RpL36G0471 w67c23/FM7a. Because Minute mutants were in yw or w background, y1w1 (Bloomington stock #1495) was used as ‘wild type’ control in these experiments.
Feeding stage 3rd instar larvae were irradiated as previously described (2). Briefly, 120 hr old larvae were rinsed to remove food and passed through sizing sieves to obtain animals of uniform size. Larvae were placed in a Petri dish and irradiated using a TORREX X-ray generator, set at 115 kV and 5 mA (producing 2.4 Rads/sec or 1.44 Gy/min) Irradiated larvae were then cultured on cornmeal-agar media (2) containing drug or DMSO carrier. In all experiments using human cells, cells in 96-well plates were irradiated with a RS2000 Biological Irradiator (Rad Source Technologies, Inc.) delivering 1 Gy/min.

H157 tumor xenografts = H157 tumor xenografts in athymic mice, Bouvardin with radiation; format: in vivo
Excerpt: The effectiveness of Bouvardin, IR and the combination of the two was next assessed in H157 tumor xenografts (FIG. 17B). […] Similar results were obtained in a repeat experiment (not shown). […] Bouvardin enhances the effect of radiation in Drosophila mutant larvae, human cancer cells and tumor xenografts in mice. The choice of drug concentration would be critical.
In FIG. 17 (A) Clonogenic assays were used to confirm the effects of Bouvardin in combination with radiation in H157 cells. Cells were plated in 6 well plates at 1,000 cells per well. 24 hours later, various doses of (1 nM, 5 nM and 10 nM) of Bouvardin were added with media alone as a control. 24 hours after the addition of Bouvardin, the cells were irradiated at 0, 2, 4 and 6 Gy. Colonies were allowed to form for 2 weeks and then counted. The results are shown as a percentage of control (no drug, no IR). Error bar=±1SEM. (B) The effect of Bouvardin (Bvd) and radiation on H157 xenografts in athymic mice. Bouvardin treatment began when tumors had reached approximately 200 mm3. Bouvardin was administered intraperitonealy twice a week, and radiation was administered 24 hr after each drug administration Animals in control and drug-only groups had tumors that were too large and had to be sacrificed on day 26. Treatment continued for the other two groups for one more week. The difference in tumor volume between combination-treated group and radiation only group was statistically significant at day 30 (p=0.0387 on day 30; upaired two tailed t-test). The difference in tumor volume between combination-treated group and radiation only group remains on day 33 but is less significant (p=0.0967; upaired two tailed t-test). N=10 per group. The data points indicate mean tumor volumes ±1SEM.
Six to 8-week-old female nude athymic mice were purchased from Harlan Laboratories and housed in a pathogen-free facility approved by the American Association for the Accrediation of Laboratory Animal Care and met all current regulations and standards of the U.S. Department of Agriculture, the U.S. Department of Health and Human Services and the National Institutes of Health Animal procedures were carried out in accordance with a protocol approved by the Institutional Animal Care and Use Committee of the University of Colorado. Cancer cells were grown to 80% confluence and harvested by trypsinization. Trypsin was neutralized with complete medium containing FBS. […] Mice were treated for 3 weeks, and tumor growth was measured until volume exceeded 2 cm3, when animals were euthanized. Tumor volume was measured on Tuesdays and Fridays. Tumor volume was calculated using the formula V=a2×b/2, where a and b are the smallest and largest tumor diameters, respectively, as determined using calipers.

COc1ccc(C[C@H]2C(=O)N[C@H](C)C(=O)N(C)[C@@H]3C(=O)N(C)[C@@H](Cc4ccc(O)c(c4)Oc4ccc(cc4)[C@H]3O)C(=O)N[C@@H](C)C(=O)N[C@H](C)C(=O)N2C)cc1 (stereo in doubt) [Bouvardin, bouvardin]
manner in which drug and radiation act together [1]: additive manner | eclosion (fraction eclosed, normalized to no IR/drug control) ([1]; 10 μM of drug alone): 0.82±0.15 | eclosion ([1]; 10 mM of drug alone): 0.82 | eclosion expected if the two treatments produced an additive effect [1]: 0.51±0.10 | eclosion expected if the two treatments produced an additive effect ([1]; listed as bouvardin): 0.50 | eclosion (fraction eclosed, normalized to no IR/drug control) ([1]; combination of Bouvardin and IR): 0.49 | effect on the killing effect of radiation (+IR versus +both) ([1]; drug 10-20 μM): increased the killing effect of radiation in a statistically significant manner | tumor control, drug with radiation versus radiation alone (H157 tumor xenografts; 0.2 mg/kg + radiation 24 hr after each drug administration, p=0.0387 on day 30, p=0.0967 on day 33): improved control of tumor volume in a statistically significant manner; also recorded: enhanced the effect of IR | tumor control, drug alone (H157 tumor xenografts; 0.2 mg/kg intraperitonealy twice a week): had little effect on its own | tumor control, drug alone (H157 tumor xenografts; 0.4 mg/kg): shows tumor control; also recorded: had effect on its own | tumor control, drug with radiation versus radiation alone (H157 tumor xenografts; 0.4 mg/kg + radiation): did not enhance the effect of radiation; also recorded: did not enhance the effect of IR
